Results on 10 molecules are retold here after ChEMBL document CHEMBL3044961, “Rapid synthesis, characterization, anticancer and antimicrobial activity studies of substituted thiadiazoles and their dinucleating ligand metal complexes” (Med Chem Res, 2012).

One experiment deals with Aspergillus flavus. In words: Antifungal activity against Aspergillus flavus at 1 ug/ml after 48 hr by well diffusion method. The conditions noted are these: read-out: IZ. The experiment is classed as functional. (A growth-free zone around the sample is the usual read-out of agar diffusion tests.)
A further experiment deals with U-937. The experiment can be described thus: Cytotoxicity against Homo sapiens (human) U937 cells after 96 hr by MTT assay. The experiment is classed as functional, cell-based. Background: Formazan colour is commonly taken as a measure of viable cells.
The test system of the next experiment is HL-60. In words: Cytotoxicity against Homo sapiens (human) HL60 cells after 96 hr by MTT assay. The experiment is classed as functional, cell-based.
The subject of another experiment is Escherichia coli. The experiment can be described thus: Antibacterial activity against Escherichia coli at 1 ug/ml after 24 hr by well diffusion method. The experiment is classed as functional. To be noted: read-out: IZ.
A further experiment concerns Proteus vulgaris. The experiment can be described thus: Antibacterial activity against Proteus vulgaris at 1 ug/ml after 24 hr by well diffusion method. The experiment is classed as functional. The conditions noted are these: for zone of inhibition at 1 µg/mL: read-out: IZ.
Experiment [1] deals with Pectobacterium carotovorum. The experiment can be described thus: Antibacterial activity against Pectobacterium carotovorum at 1 ug/ml after 24 hr by well diffusion method. The format is functional. To be noted: for zone of inhibition at 1 µg/mL: read-out: IZ.
In a further experiment the test system is Bacillus subtilis. The experiment can be described thus: Antibacterial activity against Bacillus subtilis at 1 ug/ml after 24 hr by well diffusion method. The experiment is classed as functional. The conditions noted are these: read-out: IZ.
In another experiment the test system is Rhizoctonia solani. In words: Antifungal activity against Rhizoctonia solani at 1 ug/ml after 48 hr by well diffusion method. The experiment is classed as functional. To be noted: for zone of inhibition at 1 µg/mL: read-out: IZ.
The test system of the next experiment is Lasiodiplodia theobromae. The experiment can be described thus: Antifungal activity against Lasiodiplodia theobromae at 1 ug/ml after 48 hr by well diffusion method. The format is functional. The conditions noted are these: for zone of inhibition at 1 µg/mL: read-out: IZ.
For another experiment, the system named is Penicillium expansum. The experiment can be described thus: Antifungal activity against Penicillium expansum at 1 ug/ml after 48 hr by well diffusion method. The experiment is classed as functional. The conditions noted are these: read-out: IZ.
The subject of the next experiment is Micrococcus luteus. The experiment can be described thus: Antibacterial activity against Micrococcus luteus at 1 ug/ml after 24 hr by well diffusion method. The format is functional. The conditions noted are these: for zone of inhibition at 1 µg/mL: read-out: IZ.
The test system of the next experiment is Klebsiella pneumoniae. In words: Antibacterial activity against Klebsiella pneumoniae at 1 ug/ml after 24 hr by well diffusion method. The format is functional. To be noted: read-out: IZ.
The subject of the next experiment is Enterococcus faecalis. In words: Antibacterial activity against Enterococcus faecalis at 1 ug/ml after 24 hr by well diffusion method. The format is functional. To be noted: for zone of inhibition at 1 µg/mL: read-out: IZ.
Another experiment relates to Streptococcus faecalis. In words: Antibacterial activity against Streptococcus faecalis at 1 ug/ml after 24 hr by well diffusion method. The conditions noted are these: read-out: IZ.
Where [2] appears, read: Homo sapiens, U-937, 96 h, read-out: IC50.
[3] abbreviates: Homo sapiens, HL-60, 96 h, read-out: IC50.

The source made the active and inactive calls. No cut-off for these calls is given here.

One may read the IC50 as the point on the concentration scale where inhibition reaches its midpoint.

`CC(=O)C(=NNc1nnc(C)s1)C(C)=O`: the zone of inhibition at 1 µg/mL was found to be 12 mm with Aspergillus flavus; 8 mm in the experiment with Escherichia coli; 7 mm with Proteus vulgaris; 6 mm in experiment [1]; 7 mm in the experiment on Bacillus subtilis; 4 mm in the experiment with Rhizoctonia solani. Further, the zone of inhibition at 1 µg/mL with Lasiodiplodia theobromae was found to be 6 mm; in the experiment on Penicillium expansum, 18 mm; in the experiment on Klebsiella pneumoniae, 8 mm; with Enterococcus faecalis it was 8 mm; in the experiment on Streptococcus faecalis, 7 mm. Also, the values for the IC50 with U-937 (setting [2]) and in the experiment with HL-60 (setting [3]) were 24.7 µM and 23 µM, respectively. In the experiment with Micrococcus luteus, the “inhibition zone (IZ)” value is “inactive”.
With `Cc1nnc(NN=C(C#N)C#N)s1`, the zone of inhibition at 1 µg/mL in the experiment on Aspergillus flavus turned out to be 12 mm; in the experiment on Escherichia coli it was 6 mm; with Proteus vulgaris it was 10 mm; with Bacillus subtilis it was 10 mm; in the experiment with Lasiodiplodia theobromae, 8 mm; in the experiment with Penicillium expansum it was 15 mm. Besides, the zone of inhibition at 1 µg/mL in the experiment on Micrococcus luteus came to 7 mm; in the experiment with Klebsiella pneumoniae it was 8 mm; with Enterococcus faecalis, 9 mm; with Streptococcus faecalis, 6 mm. For the same molecule, the IC50 entry was “Not Active” in the experiment with U-937 (u-937) and 28.1 µM in the experiment on HL-60 (setting [3]). Besides, the “inhibition zone (IZ)” value (in experiment [1]; in the experiment on Rhizoctonia solani) was “inactive” each time.
`CCc1nnc(NN=C(C(C)=O)C(C)=O)s1`: the zone of inhibition at 1 µg/mL with Aspergillus flavus was found to be 10 mm; with Escherichia coli, 8 mm; with Proteus vulgaris it was 6 mm; in experiment [1], 7 mm; in the experiment on Bacillus subtilis it was 8 mm; with Rhizoctonia solani it was 6 mm. Besides, the zone of inhibition at 1 µg/mL in the experiment with Lasiodiplodia theobromae stood at 7 mm; with Penicillium expansum, 14 mm; in the experiment on Micrococcus luteus, 8 mm; in the experiment on Klebsiella pneumoniae, 5 mm; in the experiment on Enterococcus faecalis, 8 mm; with Streptococcus faecalis, 8 mm.
For `CCOC(=O)/C(C#N)=N/Nc1nnc(C)s1`, the zone of inhibition at 1 µg/mL with Aspergillus flavus was 11 mm; in the experiment on Escherichia coli, 7 mm; in the experiment on Proteus vulgaris, 8 mm; in the experiment with Bacillus subtilis, 8 mm; in the experiment with Lasiodiplodia theobromae, 7 mm; in the experiment on Penicillium expansum, 17 mm. For the same molecule, the zone of inhibition at 1 µg/mL came to 7 mm in the experiment with Klebsiella pneumoniae, 7 mm with Enterococcus faecalis and 6 mm in the experiment on Streptococcus faecalis. For the same molecule, the results for the IC50 in the experiment on U-937 (setting [2]) and in the experiment with HL-60 (setting [3]) were 19.3 µM and 22.1 µM, respectively. The “inhibition zone (IZ)” value (in experiment [1]; in the experiment on Rhizoctonia solani; with Micrococcus luteus) was “inactive” in each case.
As to `CC1(C)S[C@@H]2[C@H](NC(=O)[C@H](N)c3ccccc3)C(=O)N2[C@H]1C(=O)O` [AMPICILLIN], the zone of inhibition at 1 µg/mL was 31 mm with Aspergillus flavus; 28 mm with Escherichia coli; 33 mm in the experiment with Proteus vulgaris; 31 mm in experiment [1]; 30 mm in the experiment on Bacillus subtilis; 29 mm with Rhizoctonia solani. Besides, the zone of inhibition at 1 µg/mL in the experiment with Penicillium expansum was found to be 35 mm; with Micrococcus luteus it was 32 mm; in the experiment on Klebsiella pneumoniae, 29 mm; in the experiment with Streptococcus faecalis it was 30 mm. Besides, the “inhibition zone (IZ)” value in the experiment on Lasiodiplodia theobromae and in the experiment with Enterococcus faecalis was “inactive” each time.
As for `CCOC(=O)/C(C#N)=N/Nc1nnc(CC)s1`, the zone of inhibition at 1 µg/mL in the experiment with Aspergillus flavus came to 12 mm; in the experiment on Escherichia coli, 9 mm; in the experiment on Bacillus subtilis, 9 mm; with Lasiodiplodia theobromae it was 10 mm; with Penicillium expansum, 16 mm; in the experiment with Micrococcus luteus it was 6 mm. Also, the zone of inhibition at 1 µg/mL is 7 mm in the experiment with Klebsiella pneumoniae, 6 mm in the experiment on Enterococcus faecalis and 5 mm in the experiment on Streptococcus faecalis. For the same molecule, the “inhibition zone (IZ)” value (in the experiment on Proteus vulgaris; in experiment [1]; with Rhizoctonia solani) was “inactive” in each case.
Consider `CCc1nnc(NN=C(C#N)C#N)s1`, for which the zone of inhibition at 1 µg/mL in the experiment with Aspergillus flavus was 12 mm; in the experiment on Escherichia coli it was 9 mm; in experiment [1], 7 mm; in the experiment on Bacillus subtilis, 11 mm; with Lasiodiplodia theobromae, 15 mm; with Penicillium expansum it was 16 mm. The zone of inhibition at 1 µg/mL with Micrococcus luteus stood at 6 mm; with Klebsiella pneumoniae it was 7 mm; with Enterococcus faecalis, 7 mm; with Streptococcus faecalis, 8 mm. For the same molecule, the “inhibition zone (IZ)” value in the experiment with Proteus vulgaris and in the experiment with Rhizoctonia solani was “inactive” throughout.
In the case of `NC(=O)NO` [HYDROXYUREA], the 50% inhibitory concentration (IC50) result in the experiment on HL-60 (hl-60) was “Not Active”.
In the case of `O=NN(CCCl)C(=O)NCCCl` [CARMUSTINE], the half-maximal inhibitory concentration (IC50) in the experiment with U-937 (setting [2]) was determined as 12.3 µM; in the experiment with HL-60 (setting [3]) it was 30.5 µM.
The corresponding values for `O=c1[nH]cc(F)c(=O)[nH]1` [FLUOROURACIL] are 4.7 µM and 266 µM.
